From US7629310B2, “RhoB as a suppressor of cancer cell growth, cell transformation, and metastasis” (University of South Florida, priority 2000, dated 2009)
Several values for one entry are separate records, joined by “and”; a condition that tells them apart may be missing. Equal values may be shown once.

Tests used:
[1] = tested on: H-Ras/3T3 cells; assay: Migration through collagen type I coated transfilters, H-Ras/3T3 cells; assay type: cell-based; details: H-Ras/3T3 cells (FIG. 8B)
Method: (§1) Parental NIH3T3 (FIG. 8A) were transiently transfected with pcDNA3 vector control, H-Ras61L, CA-PI3K, or CA-Akt in the presence or absence of RhoA or RhoB or pcDNA3 for 36 hours. The cells were then split and cultured for another 4 weeks. The plates were examined for focus formation by staining. H-Ras/3T3 cells (FIG. 8B) and PANC-1 cells (FIG. 8C) were transiently transfected with pcDNA3 vector control, CA-Akt, or WT-Akt in the presence or absence of RhoA, RhoB, or pcDNA3 for 36 hours. The cells were then split and analyzed for their migration capabilities through collagen type I coated transfilters as described in the Materials and Methods section. NIH3T3 cells (FIGS. 8D and 8E) were transiently transfected with pcDNA3 vector control, H-Ras61L, CA-Akt, or WT-Akt in the presence or absence of RhoA, RhoB, or pcDNA3 for 36 hours. The monolayers were then scratched with a 20 μl pipette tip and micro-photographed at the time points indicated for analyzing their capability to migrate into and fill the wounded area.

[2] = tested on: NIH3T3 cells; assay: Anchorage-independent growth (soft agar) assay in NIH3T3 cells; assay type: cell-based; details: 5 weeks
Method: Anchorage-independent Growth Assay. NIH3T3 cells were similarly transfected as above. The cells were trypsinized, and 2.5×10^3 cells were suspended in triplicate in top soft agar layer (DMEM complete medium containing 0.35% agar) and seeded into 60-mm plates pre-coated by a 3-mm layer of lower agar (DMEM complete medium containing 0.7% agar). The cells were fed every 5 days for 5-6 weeks and finally stained with MTT (SIGMA). All the experiments were performed in triplicate and a representative of 3 independent experiments was reported in the figure(s) and averages±standard deviation in the table.

[3] = tested on: H-Ras/NIH3T3 cells; assay: Anoikis assay in H-Ras-transformed NIH3T3 cells; assay type: cell-based; details: H-Ras-transformed NIH3T3, poly-HEMA plates
Method: Anoikis Assay. Cells were collected by trypsinization, washed twice with PBS, and re-suspended in serum-free medium containing 0.5% BSA; 5.0×10^5 cells were then seeded in triplicates into 60-mm plates pre-coated with poly(2-hydroxyethylmethacrylate) (poly-HEMA, SIGMA) according to the data sheet of the agents. 24 hrs later the cellular viability was determined by trypan blue exclusion.

[4] = tested on: NIH3T3 cells; assay: Focus formation assay in oncogene-transfected NIH3T3 cells; assay type: cell-based; parameters: inhibition of focus formation: concentration or dose not given beside the values; details: for # of foci formed: 4 weeks
Method: (§2) Focus Formation Assay. NIH3T3 cells were seeded into 60-mm plates (1×10^6 cell/per plate) one day prior to gene transfection. […] Two days after transfection, the cells were seeded into 60-mm plates at a density of 2.5×10^3/per plate, and maintained in DMEM medium containing 1.5% CBS. The medium was changed every 3 days. 3-4 weeks later the cells were washed once with PBS and once with PBS/methanol (1:1), then washed with fresh anhydrous methanol and covered with crystal violet stain for 1 min at room temperature. Finally, the stain was displaced with water. The focus formation assay for A-549 cells was similarly performed as above except that following the transfection the cells were cultured in DMEM complete medium containing 400 μg/ml of geneticin (G418, […], Inc.). 3 weeks later, the cells were fixed with anhydrous methanol and stained with crystal violet; the plates were photographed. All the samples were performed in triplicate and a representative of 3 independent experiments was reported in the figure(s) and averages±standard deviation reported in the table.

[5] = tested on: PANC-1 cells; assay: Migration through collagen type I coated transfilters, PANC-1 cells; assay type: cell-based, human; details: PANC-1 cells (FIG. 8C)
Method: as §1

[6] = tested on: A-549 cells; assay: Focus/colony formation of A-549 cells in G418 medium; assay type: cell-based, human; details: transfected A-549 cells, 3 weeks
Method: as §2

[7] = tested on: A-549 cells; assay: Cell proliferation, A-549; assay type: cell-based, human; details: A-549, 0-96 hours
Method: Cell Proliferation. Cells were collected and examined for cell number by trypan blue exclusion and hemocytometer counting under microscope at 0 h, 24 h, 48 h, 72 h and 96 h. All the samples were performed in triplicate and the averages of 3 independent experiments were reported.

[8] = tested on: H-Ras/3T3 cells; assay: Invasion through […]-coated transfilters, H-Ras/3T3 cells; assay type: cell-based; details: H-Ras/3T3 cells (FIG. 9A)
Method: HRas/3T3 cells (FIG. 9A) and PANC-1 cells (FIG. 9B) were transiently transfected with pcDNA3 vector control, H-Ras61L, CA-Akt, or WT-Akt in the presence or absence of RhoA, RhoB, or pcDNA3 for 36 hours. The cells were then split and analyzed for their invading capabilities through […]-coated transfilters as described in the Materials and Methods section. PANC-1 and PC3 cells (FIG. 9C) were transiently transfected with pcDNA3, with H-Ras61L in the presence or absence of RhoA, or RhoB for 36 hours. The cells were then serum-starved for another 36 hours; the conditioned medium was collected and 20 μg protein were analyzed for MMP-2 expression by Western Blotting.
Whether RhoB can also antagonize cell invasion was evaluated. To this end, H-Ras/3T3 and PANC-1 cells were similarly transfected as above with various oncogenes along with RhoA or RhoB, then seeded onto […]-coated poly-hydrocarbonate filters mounted in the middle of a Boyden transwell apparatus as described under Methods. […] Furthermore, transfection with CA-Akt or WT-Akt enhanced invasion; and RhoB, not RhoA, inhibited this enhancement of invasion (FIGS. 9A and 9B).

[9] = tested on: H-Ras/NIH3T3 cells; assay: 5-FU-induced apoptosis (Annexin V, flow cytometry) in H-Ras-transformed NIH3T3 cells; assay type: cell-based
Method: Apoptosis Assay. Cells were collected by trypsinization, washed in wash buffer and stained with Annexin V and 7-AAD according to manufacturer's recommendation (PharMingen, San Diego, Calif.). Data acquisition and analysis was performed by the Flow Cytometry Core Facility at the H. Lee Moffitt Cancer Center (Tampa, Fla.). All the samples were performed in duplicate and a representative of 3 independent experiments were reported here.

[10] = tested on: RhoB protein levels; assay: RhoB protein level by Western blotting in NIH3T3 cells; assay type: cell-based; details: NIH3T3, 5-FU for 36 hrs (FIG. 2C)
Method: NIH3T3 cells were transiently transfected with various oncogenes or pcDNA3 vector control and cultured for 36 hrs; the pcDNA3-transfected cells were treated by either DMSO or 5-FU for 36 hrs. The cells were then lysed and analyzed for transfection efficiency by Western blotting with anti-HA or anti-Src antibody and for RhoB protein level with anti-RhoB antibody. […] NIH3T3 cells were transiently transfected with various Ras oncogenes or pcDNA3 vector control for 12 hrs, then treated by either DMSO, or 5-FU for another 36 hrs. The whole cell lysates were analyzed for RhoB protein level by Western blotting with anti-RhoB antibody.
Western Blot Analysis. Whole cell lysates were prepared in a lysis buffer containing 20 mM Tris-HCl (pH 7.5), 150 mM NaCl, 1% NP-40, 1 mM phenylmethylsulfonyl fluoride, 1.5 μg each of aprotinin and leupeptin per ml, 10 mM NaF, 10 mM NaPPi, 3 mM sodium vanadate, and 15 mM lycerolphosphate. Lysates were incubated 30 min on ice and centrifuged at 13,000×g for 10 min at 4° C. prior to SDS-PAGE and Western blotting. 50 μg of lysates was loaded for each sample.

Compound	ability to migrate through collagen type I [1]	# of soft agar colonies ([2]; oncogene: H-Ras)	# of soft agar colonies ([2]; oncogene: K-Ras)	# of soft agar colonies ([2]; oncogene: N-Ras)	anoikis [3]	# of foci formed ([4]; oncogene transfected: EGFR)	# of foci formed ([4]; oncogene transfected: ErbB2)	# of foci formed ([4]; oncogene transfected: H-Ras)	# of foci formed ([4]; oncogene transfected: K-Ras)	# of foci formed ([4]; oncogene transfected: N-Ras)	# of foci formed ([4]; oncogene transfected: v-Src)	ability to migrate through collagen type I [5]	number of colonies [6]	growth rate [7]	other results
RhoA: closely related family member sharing 86% sequence identity with RhoB; wild-type, in HA-tagged pcDNA3, transfected as control	migrated	77 and 77 ± 12	65 and 65 ± 7	89 and 89 ± 14	slightly protected from anoikis	47 ± 7	61 ± 11	63 ± 11	71 ± 13	46 ± 8	35 ± 7	migrated	593+/−43	enhanced the rate of growth	invasion through MATRIGEL [8]: invaded
RhoB: low molecular weight GTPase; wild-type RhoB subcloned into HA-tagged pcDNA3 and ectopically expressed by transfection	dramatically hindered	21 and 21 ± 3	18 and 18 ± 5	26 and 26 ± 7	enhanced anoikis	17 ± 3	19 ± 4	18 ± 3	16 ± 4	22 ± 3	26 ± 6	dramatically hindered	178+/−19	inhibited the growth rate	percent of apoptosis induced by 5-FU after transfection ([9]; H-Ras-transformed NIH3T3, transfected 24 hrs then 5-FU 48 hrs, control 16%): 37%; colony (focus) formation ([4]; co-transfection with H-Ras61L, CA-PI3K or CA-Akt, 4 weeks (FIG. 8A)): significant inhibition of colony formation; inhibition of focus formation ([4]; focus formation by EGFR): 56%; inhibition of focus formation ([4]; focus formation by ErbB2): 59%; inhibition of focus formation ([4]; focus formation by H-Ras): 62%; inhibition of focus formation ([4]; focus formation by K-Ras): 61%; inhibition of focus formation ([4]; focus formation by N-Ras): 39%; inhibition of focus formation ([4]; v-Src transformation): 15%
O=c1[nH]cc(F)c(=O)[nH]1 [5-FU, 5-fluorouracil]															apoptosis ([9]; H-Ras-transformed NIH3T3, 5-FU 2.0 μM 48 hrs (FIG. 4B)): 16-18%; induction of RhoB protein levels [10]: 3 fold
